The target in data set [1] is wild type c-kit (Homo sapiens (Human), UniProt P10721). In words: PathScan phospho c-kit (Tyr719) sandwich ELISA in SCF-stimulated M-07e cells (pKIT assay). It counts as cell-based. The following applies: ELISA assay (values not marked *). The method in brief:
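Serum- and GM-CSF-starved M-07e cells (4 h) pretreated 60 min at 37 °C with an 8-point compound series in duplicate (0.25% DMSO), then stimulated with human SCF (500 ng/mL stock) 10 min at room temperature. Lysate c-kit Tyr719 phosphorylation quantified by sandwich ELISA with TMB read-out; IC50 from 4-parameter logistic fit.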

Data set [2] has as its target human P-glycoprotein (P-gp, MDR1) (Homo sapiens (Human), UniProt P08183). Briefly: MDCK-MDR1 cell monolayer drug transport assay (P-gp efflux ratio). The settings on record: pH 7.4, MDCK-MDR1 cells, 1 uM concentration of compound, read-out: Pgp Efflux Ratio, 1 uM. It counts as in vitro ADME. As to the method: The potential for compounds prepared according to the examples to be substrates of P-gp was evaluated using in vitro on Multidrug Resistance Mutation 1-Mardin-Darby Canine Kidney (MDCK-MDR1)) (Mardin-Darby Canine Kidney) cell monolayers overexpressing P-gp grown on permeable supports.
Preparation for cell seeding: MDCK-MDR1 cell culture medium consisting of Dulbecco's Modified Eagle's Medium (DMEM) with high glucose and L-glutamine supplemented with: 10% FBS, 0.1 mg/mL of streptomycin, 0.6 μg/mL of Kanamycin sulfate and 100 units of penicillin was prepared. 50 μL of culture medium was added to each well of the Transwell insert. The Transwell insert was removed from the reservoir and 25 mL of culture medium was added. After incubation at 37° C., 5% CO2 for 1 hour, the plates were ready for cell seeding. The cells were cultivated in T-75 flasks in a cell culture incubator set at 37° C., 5% CO2, 95% relative humidity until they reached 80-90% confluence before detaching and splitting. The cultivated cells were rinsed in T-75 flasks with 5 mL PBS and aspirated off, and then 1.5 mL trypsin/EDTA was added and incubated at 37° C. for approximately 5 to 10 minutes or until the cells detach and float. The trypsin/EDTA was inactived by adding excess serum containing medium. The cell suspension was transferred to a conical tube and the cells pelleted by centrifugation at 120×g for 10 minutes. The cells were resuspended in seeding medium at a density of 1.56×10^6 cells/mL. This cell concentration was used to seed 5.45×10^5 cells/cm^2.
Seeding and feeding of MDCK-MDR1 cells into transwell plates: 50 μL of the above cell suspension was added to each well of a previously prepared Transwell plate and the plate was incubated for 4-8 days, replacing the medium every other day beginning no sooner than 48 hours after initial plating. The medium must be replaced on the day before conducting the experiment, and the procedure for medium changes was carried out as follows. The plate was removed from the incubator and placed in a hood. The medium was aspirated from a reservoir and each Transwell was inserted. 100 μL of culture medium was added to each well of the Transwell inserts and 25 mL of culture medium to reservoir tray. The plate was returned to the incubator.
Assessment of cell monolayer integrity: When the 4-day cultured MDCK-MDR1 cells reached confluence and were differentiated, the medium was removed from the reservoir and Transwell inserts. 100 μL of prewarmed culture medium was added to each transwell insert and 25 mL was added to the reservoir tray. The electrical resistance across the monolayer was measured using a Millicell Epithelial Volt-Ohm measuring system. The electrical resistance for each well was measured and then the plate was returned to the incubator. TEER values were calculated using this formula: TEER measurement (ohms)×Area of membrane (cm2)=TEER value (ohm cm2). Any monolayer with a TEER value <42 ohms·cm2, indicating poor monolayer formation, was discarded.
Performing the drug transport assay: The MDCK-MDR1 plate was removed from the incubator and the monolayer was washed, exchanging the volume two times using pre-warmed HBSS (Hank's balanced salt solution) (10 mM HEPES, pH 7.4). The plate was then incubated at 37° C. for 30 minutes. A 1 μM compound working solution was prepared as follows: Added […] of stock solution (10 mM in DMSO) of test compound and control compounds (Metoprolol, Prazosin and Imatinib) in one 96 well plate, then added 98 μL of DMSO into the same well to obtain 0.2 mM stock solutions (note a stock solution was further diluted 1:10 for eventually making a 0.1 uM compound working solution). Transfered 3 μL of 0.2 mM solution into 597 μL of transport buffer in one 96 well plate to prepare the 1 μM compound working solution. The plate was shaken at 1000 rpm for 10 min.

wild type c-kit, sequence (P10721 26-976): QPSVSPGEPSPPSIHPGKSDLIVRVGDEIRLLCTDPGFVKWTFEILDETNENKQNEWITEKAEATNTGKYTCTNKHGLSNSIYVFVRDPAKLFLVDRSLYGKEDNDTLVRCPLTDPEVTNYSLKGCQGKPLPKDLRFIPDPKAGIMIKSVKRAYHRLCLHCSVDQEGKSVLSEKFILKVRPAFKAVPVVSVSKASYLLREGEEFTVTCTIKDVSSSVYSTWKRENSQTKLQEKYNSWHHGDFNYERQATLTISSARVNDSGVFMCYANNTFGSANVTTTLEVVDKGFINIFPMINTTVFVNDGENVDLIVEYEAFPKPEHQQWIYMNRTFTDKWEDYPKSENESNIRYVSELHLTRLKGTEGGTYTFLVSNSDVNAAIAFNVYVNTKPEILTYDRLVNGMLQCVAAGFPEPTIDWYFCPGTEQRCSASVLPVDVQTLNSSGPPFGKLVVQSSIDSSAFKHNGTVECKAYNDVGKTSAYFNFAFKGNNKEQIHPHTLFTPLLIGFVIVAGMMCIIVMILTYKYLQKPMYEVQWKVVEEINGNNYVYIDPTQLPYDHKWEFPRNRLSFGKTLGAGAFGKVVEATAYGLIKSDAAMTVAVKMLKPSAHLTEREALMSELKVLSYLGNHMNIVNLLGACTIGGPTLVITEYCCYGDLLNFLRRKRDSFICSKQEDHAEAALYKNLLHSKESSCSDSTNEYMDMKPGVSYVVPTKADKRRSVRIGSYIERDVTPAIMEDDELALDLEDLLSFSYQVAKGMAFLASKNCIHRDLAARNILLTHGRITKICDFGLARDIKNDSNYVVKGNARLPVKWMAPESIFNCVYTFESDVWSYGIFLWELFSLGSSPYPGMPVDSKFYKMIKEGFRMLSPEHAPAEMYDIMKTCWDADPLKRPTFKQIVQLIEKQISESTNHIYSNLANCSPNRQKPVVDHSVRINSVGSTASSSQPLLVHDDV
human P-glycoprotein (P-gp, MDR1), sequence (P08183 whole entry): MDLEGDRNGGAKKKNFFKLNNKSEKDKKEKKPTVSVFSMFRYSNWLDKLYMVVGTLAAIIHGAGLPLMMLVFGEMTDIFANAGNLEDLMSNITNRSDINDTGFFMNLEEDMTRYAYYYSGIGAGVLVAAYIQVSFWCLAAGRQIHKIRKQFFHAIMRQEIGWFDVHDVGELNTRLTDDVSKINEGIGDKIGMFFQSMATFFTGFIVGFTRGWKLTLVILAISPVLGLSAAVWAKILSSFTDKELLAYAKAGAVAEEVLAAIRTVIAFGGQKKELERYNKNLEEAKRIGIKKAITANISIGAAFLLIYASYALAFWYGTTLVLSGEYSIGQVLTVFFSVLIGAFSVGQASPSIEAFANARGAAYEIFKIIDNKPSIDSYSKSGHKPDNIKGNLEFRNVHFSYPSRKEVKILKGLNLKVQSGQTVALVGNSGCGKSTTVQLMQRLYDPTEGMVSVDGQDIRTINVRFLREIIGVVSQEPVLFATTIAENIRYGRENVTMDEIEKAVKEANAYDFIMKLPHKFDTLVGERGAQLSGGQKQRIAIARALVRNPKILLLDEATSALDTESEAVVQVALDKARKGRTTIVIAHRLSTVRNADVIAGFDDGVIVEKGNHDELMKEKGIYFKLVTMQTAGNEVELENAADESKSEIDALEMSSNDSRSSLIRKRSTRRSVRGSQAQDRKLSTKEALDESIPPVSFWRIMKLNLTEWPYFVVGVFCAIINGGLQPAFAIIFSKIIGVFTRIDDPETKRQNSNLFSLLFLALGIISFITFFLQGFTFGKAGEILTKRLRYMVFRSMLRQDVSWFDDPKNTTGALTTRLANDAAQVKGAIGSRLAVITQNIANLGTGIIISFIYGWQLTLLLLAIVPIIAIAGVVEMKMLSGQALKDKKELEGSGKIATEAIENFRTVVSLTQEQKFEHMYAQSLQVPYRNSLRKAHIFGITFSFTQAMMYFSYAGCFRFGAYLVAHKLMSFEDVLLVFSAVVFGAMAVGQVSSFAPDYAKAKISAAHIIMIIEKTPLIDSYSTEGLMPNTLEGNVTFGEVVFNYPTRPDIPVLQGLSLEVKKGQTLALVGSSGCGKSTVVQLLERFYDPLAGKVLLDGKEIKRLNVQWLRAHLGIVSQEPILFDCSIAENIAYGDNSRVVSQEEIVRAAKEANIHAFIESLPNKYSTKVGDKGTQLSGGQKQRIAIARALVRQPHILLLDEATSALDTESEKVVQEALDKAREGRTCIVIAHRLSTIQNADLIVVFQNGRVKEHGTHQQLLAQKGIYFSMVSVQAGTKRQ

Consider `Cc1ccc(-n2nnc([C@@H]3CC3(F)F)n2)cc1NC(=O)c1cnn2ccc(-c3cnn(CCO)c3)cc12` (single isomer, unassigned) [Example 233, (S)-N-(5-(5-(2,2-difluorocyclopropyl)-2H-tetrazol-2-yl)-2-methylphenyl)-5-(1-(2-hydroxyethyl)-1H-pyrazol-4-yl)pyrazolo[1,5-a]pyridine-3-carboxamide or (R)-N-(5-(5-(2,2-difluorocyclopropyl)-2H-tetrazol-2-yl)-2-methylphenyl)-5-(1-(2-hydroxyethyl)-1H-pyrazol-4-yl)pyrazolo[1,5-a]pyridine-3-carboxamide], for which the IC50 in data set [1] is 2.2 nM. In addition, the efflux ratio at 2 h, 1 µM in data set [2] worked out at 6.3.

`Cc1nnn(-c2ccc(C)c(NC(=O)c3cnn4ccc(-c5cn(C[C@H]6CNCCO6)nc5C)cc34)c2)n1` [Example 230, (R)-5-(3-methyl-1-(morpholin-2-ylmethyl)-1H-pyrazol-4-yl)-N-(2-methyl-5-(5-methyl-2H-tetrazol-2-yl)phenyl)pyrazolo[1,5-a]pyridine-3-carboxamide] displayed an IC50 in data set [1] of 0.8 nM. In data set [2], the efflux ratio at 2 h, 1 µM was 116.

On to `Cc1ccc(-n2nnc(C3CC3)n2)cc1NC(=O)c1cnn2ccc(-c3cnn(CCO)c3)cc12` [Example 52, N-(5-(5-cyclopropyl-2H-tetrazol-2-yl)-2-methylphenyl)-5-(1-(2-hydroxyethyl)-1H-pyrazol-4-yl)pyrazolo[1,5-a]pyridine-3-carboxamide], for which, in data set [1], the IC50 came to 0.7 nM. The efflux ratio at 2 h, 1 µM in data set [2] worked out at 5.9.

In data set [1], `COCCNc1cc2c(C(=O)Nc3cc(-c4nnn(C5CN(C(=O)OC)C5)n4)ccc3C)cnn2cc1F` [Example 171, methyl 3-(5-(3-(6-fluoro-5-((2-methoxyethyl)amino)pyrazolo[1,5-a]pyridine-3-carboxamido)-4-methylphenyl)-2H-tetrazol-2-yl)azetidine-1-carboxylate] showed an IC50 of 34.3 nM. Also, the efflux ratio at 2 h, 1 µM in data set [2] was determined as 6.

For the molecule `Cc1ccc(-c2nnn(C3CN(S(C)(=O)=O)C3)n2)cc1NC(=O)c1cnn2ccccc12` [Example 172, N-(2-methyl-5-(2-(1-(methylsulfonyl)azetidin-3-yl)-2H-tetrazol-5-yl)phenyl)pyrazolo[1,5-a]pyridine-3-carboxamide], in data set [1], the IC50 came to 35.4 nM. Besides, the efflux ratio at 2 h, 1 µM in data set [2] was determined as 5.5.

`Cc1ccc(-n2nnc(C3CC3)n2)cc1NC(=O)c1cnn2ccc(-c3cnn(CC(C)(C)O)c3)cc12` [Example 225, N-(5-(5-cyclopropyl-2H-tetrazol-2-yl)-2-methylphenyl)-5-(1-(2-hydroxy-2-methylpropyl)-1H-pyrazol-4-yl)pyrazolo[1,5-a]pyridine-3-carboxamide]: the IC50 in data set [1] turned out to be 1.7 nM. Further, the efflux ratio at 2 h, 1 µM in data set [2] worked out at 3.3.

On to `COC[C@](C)(O)Cn1cc(-c2ccn3ncc(C(=O)Nc4cc(-c5nnn(C6CC6)n5)ccc4C)c3c2)cn1` (single isomer, unassigned) [Example 267, (R)-N-(5-(2-cyclopropyl-2H-tetrazol-5-yl)-2-methylphenyl)-5-(1-(2-hydroxy-3-methoxy-2-methylpropyl)-1H-pyrazol-4-yl)pyrazolo[1,5-a]pyridine-3-carboxamide or (S)-N-(5-(2-cyclopropyl-2H-tetrazol-5-yl)-2-methylphenyl)-5-(1-(2-hydroxy-3-methoxy-2-methylpropyl)-1H-pyrazol-4-yl)pyrazolo[1,5-a]pyridine-3-carboxamide], for which, in data set [1], the IC50 amounted to 1.4 nM. The efflux ratio at 2 h, 1 µM in data set [2] was determined as 2.9.

As for `COC[C@@H](O)Cn1cc(-c2ccn3ncc(C(=O)Nc4cc(-c5nnn(C6CC6)n5)c(C)cc4Cl)c3c2)cn1` [Example 252, (S)-N-(2-chloro-5-(2-cyclopropyl-2H-tetrazol-5-yl)-4-methylphenyl)-5-(1-(2-hydroxy-3-methoxypropyl)-1H-pyrazol-4-yl)pyrazolo[1,5-a]pyridine-3-carboxamide], in data set [1], half-maximal inhibition (IC50) required 3.7 nM. In data set [2], the efflux ratio at 2 h, 1 µM is 5.1.

Consider `Cc1ccc(-n2nnc(C3CC3)n2)cc1NC(=O)c1cnn2cc(-c3cnn(CC4(O)CCOCC4)c3)cc(F)c12` [Example 277, N-(5-(5-cyclopropyl-2H-tetrazol-2-yl)-2-methylphenyl)-4-fluoro-6-(1-((4-hydroxytetrahydro-2H-pyran-4-yl)methyl)-1H-pyrazol-4-yl)pyrazolo[1,5-a]pyridine-3-carboxamide], for which the IC50 in data set [1] was 0.5 nM. The efflux ratio at 2 h, 1 µM in data set [2] is 3.

As for `CCOC(=O)N1CC(n2nnc(-c3ccc(C)c(NC(=O)c4cnn5ccc(NC)cc45)c3)n2)C1` [Example 126, ethyl 3-(5-(4-methyl-3-(5-(methylamino)pyrazolo[1,5-a]pyridine-3-carboxamido)phenyl)-2H-tetrazol-2-yl)azetidine-1-carboxylate], in data set [1], the IC50 came out at 10.3 nM. In addition, in data set [2], the efflux ratio at 2 h, 1 µM turned out to be 15.9.

`Cc1ccc(-c2nnn(C)n2)cc1NC(=O)c1cnn2ccc(-c3cnn(C[C@@H](C)O)c3)cc12` (mixture of isomers) [Example 53, (R)-5-(1-(2-hydroxypropyl)-1H-pyrazol-4-yl)-N-(2-methyl-5-(2-methyl-2H-tetrazol-5-yl)phenyl)pyrazolo[1,5-a]pyridine-3-carboxamide and (S)-5-(1-(2-hydroxypropyl)-1H-pyrazol-4-yl)-N-(2-methyl-5-(2-methyl-2H-tetrazol-5-yl)phenyl)pyrazolo[1,5-a]pyridine-3-carboxamide] yielded an IC50 in data set [1] of 1.5 nM. Besides, the efflux ratio at 2 h, 1 µM in data set [2] was 10.9.

For the molecule `COC(=O)N1CC(c2nnn(-c3ccc(C)c(NC(=O)c4cnn5ccc(N6CCN(C)CC6)cc45)c3)n2)C1` [Example 112, methyl 3-(2-(4-methyl-3-(5-(4-methylpiperazin-1-yl)pyrazolo[1,5-a]pyridine-3-carboxamido)phenyl)-2H-tetrazol-5-yl)azetidine-1-carboxylate], the IC50 in data set [1] came to 43.4 nM. The efflux ratio at 2 h, 1 µM in data set [2] was 15.7.

Molecule `COC(=O)N1CC(c2cnn(-c3ccc(C)c(NC(=O)c4cnn5ccc(NCC6COC6)cc45)c3)n2)C1` [Example 140, methyl 3-(2-(4-methyl-3-(5-((oxetan-3-ylmethyl)amino)pyrazolo[1,5-a]pyridine-3-carboxamido)phenyl)-2H-1,2,3-triazol-4-yl)azetidine-1-carboxylate] came in with an IC50 in data set [1] of 24.1 nM. In data set [2], the efflux ratio at 2 h, 1 µM was found to be 72.2.

The molecule `COC(=O)N1CC(n2nnc(-c3ccc(C)c(NC(=O)c4cnn5ccc(OCCC(C)(C)O)cc45)c3)n2)C1` [Example 65, methyl 3-(5-(3-(5-(3-hydroxy-3-methylbutoxy)pyrazolo[1,5-a]pyridine-3-carboxamido)-4-methylphenyl)-2H-tetrazol-2-yl)azetidine-1-carboxylate] displayed an IC50 in data set [1] of 33.7 nM. In data set [2], the efflux ratio at 2 h, 1 µM is 23.5.

Regarding `COCCOc1ccc2c(C(=O)Nc3cc(-c4nnn(C5CN(C(=O)OC)C5)n4)ccc3C)cnn2c1` [Example 143, methyl 3-(5-(3-(6-(2-methoxyethoxy)pyrazolo[1,5-a]pyridine-3-carboxamido)-4-methylphenyl)-2H-tetrazol-2-yl)azetidine-1-carboxylate], the IC50 in data set [1] amounted to 10.5 nM. The efflux ratio at 2 h, 1 µM in data set [2] was 4.

The values are drawn from patent publication US20240262826A1, “WILD TYPE KIT INHIBITORS” (Blueprint Medicines Corporation, priority 2022, published 2024).
